Laboratory results reported in paper PMC3720542, “Population pharmacokinetics of mefloquine, piperaquine and artemether-lumefantrine in Cambodian and Tanzanian malaria patients” (Malaria Journal, 2013).
Converted amounts (≈) assume the structure as drawn. “And” between values parts separate entries of the source, which are not always exact repeats. Identical values can stand only once. Like-named read-outs stand apart in the source and are kept apart here.

Tests used:
[1] = Population pharmacokinetic analysis (NONMEM) of artemether-lumefantrine and metabolites in Tanzanian malaria patients (Kibaoni); assay type: in vivo, human
Method: Three studies have been conducted, one in Tanzania and two in Cambodia. The study profiles are described in Figure 1. The first study was performed during March to May 2008 at the Kibaoni Health Centre, Kilombero district, Morogoro region, Tanzania. […] Six AM-LF (Coartem®, Novartis Pharma, Switzerland) doses were administered at time 0, 8, […] according to body weight (see Table 1); patients were either admitted for three days or asked to come back to the health facility for each drug administration. Mothers of breastfed patients were encouraged to feed their children and patients admitted were provided with food. Patients who reported that they have not eaten within two hours to prior dose intake were instructed to eat as soon as possible. Patients were seen by the clinical officer on days 0, 1, 2, 3, 7, 14, 28, and 42. A blood sample for pharmacokinetic measurement was taken at baseline (pre-dose on day 0) and on days 1, 2, and 7 at pre-defined random times after the last dosing. At each visit, a filter paper sample and a thin and thick smear were taken, in addition to axillary temperature, respiratory rate and haemoglobin measurements (only on days 0, 28 and 42) as well as evaluation of symptoms (e.g. headache, vomiting, and diarrhea). The exact dose and time of last drug intake, body weight, height, age, sex, food intake and concomitant medications were carefully recorded. If patients suffered from concomitant illnesses they were provided with additional treatment (paracetamol, mebendazole, metronidazole, cloxacillin, amoxicillin). Samples of 2 ml of venous blood were collected on an EDTA Vacutainer and kept on ice for no longer than 6 h after withdrawal and then aliquoted into whole blood, plasma and pellet and immediately stored in liquid nitrogen or a -80°C freezer. […] The laboratory is part of the quality control system of the World-Wide Antimalarial Resistance Network (WWARN). The pharmacokinetic analysis for each drug taken separately was performed using the NONMEM computer program Version 6 (NM-TRAN version II). It uses mixed (fixed and random) effects regression to estimate population means and variances of the pharmacokinetic parameters and to identify factors that influence them. One-, two- and three-compartment pharmacokinetic models with first-order absorption, with and without absorption lag times, were compared. Additional one or two-compartments were used for anti-malarials presenting metabolite concentrations (AM and LF). The final parameters estimated were systemic clearance (CL/F), inter-compartmental clearance (Q/F), central volume of distribution (VC/F), peripheral volume of distribution (VP/F) and absorption rate constant (ka). Since no intravenous drug concentration data were available, these parameters represent apparent values. Where available, metabolite data were included into the model and metabolism rate constant from drug compartment to metabolite compartment (k23) and metabolite clearance (CLmet) were also estimated. Owing to identifiability problems, the volume of distribution of the metabolites (VM) DLF and DHA were assumed to equal LF and AM VC, respectively. […] The observed baseline residual plasma concentrations were fitted by estimating a factor (F0) that provided an estimation of the residual doses from previous treatment. […] Proportional and combined proportional-and-additive error models were compared to describe intra-patient (residual) variability for the mother compound, and if available for its metabolite using Cpij(1 + ε1ij) + ε2ij or Cmij(1 + ε3ij) + ε4ij, where Cpij are the corresponding predicted i^th drug plasma concentration and Cmij are the predicted metabolite concentration for the j^th individual, and ε1ij, ε2ij, ε3ij, ε4ij, are independent normally distributed residual error terms with a mean of zero and a variance of σ^2_1, σ^2_2, σ^2_3, σ^2_4. The covariate analysis was performed using a stepwise insertion/deletion approach. […]

[2] = cited from earlier work
malaria [3] = system: malaria; parameters: method as in earlier work; details: listed as LF, cited from earlier work
clinical = details: human, in vivo
Method: The second study was conducted during October 2007 to February 2008 at the Phnom Dék Health Centre, Rovieng district, Preah Vihear province, Cambodia. Entry criteria and study procedures were identical as in the Tanzanian study with minor adaptations described below. […] Pregnant or lactating women were excluded. Three doses of AS (Arsumax®, Sanofi-Aventis, France) and MQ (Eloquine®, Medochemie Ltd, Cyprus) were given according to body weight on three consecutive days (see Table 1). Patients were seen by the clinical officer on days 1, 2, 3, 7, 14, 21, 28, 35 and 42. Sampling for the pharmacokinetic study was done at pre-dose and approximately 1 h after first dose intake on day 0, and on days 1, 2, 7 and 14 at pre-defined random times after drug intake.
Samples of 2 ml of venous blood were collected on an EDTA Vacutainer and kept on ice for no longer than 6 h after withdrawal and then aliquoted into whole blood, plasma and pellet and immediately stored in liquid nitrogen or a –80°C freezer. […] The method was validated according to FDA recommendations, including assessment of extraction yield, matrix effect variability, overall process efficiency, standard addition experiments as well as anti-malarials short- and long-term stability in plasma. […] The laboratory is part of the quality control system of the World-Wide Antimalarial Resistance Network (WWARN).
The pharmacokinetic analysis for each drug taken separately was performed using the NONMEM computer program Version 6 (NM-TRAN version II). It uses mixed (fixed and random) effects regression to estimate population means and variances of the pharmacokinetic parameters and to identify factors that influence them.
One-, two- and three-compartment pharmacokinetic models with first-order absorption, with and without absorption lag times, were compared. Additional one or two-compartments were used for anti-malarials presenting metabolite concentrations (AM and LF). The final parameters estimated were systemic clearance (CL/F), inter-compartmental clearance (Q/F), central volume of distribution (VC/F), peripheral volume of distribution (VP/F) and absorption rate constant (ka). Since no intravenous drug concentration data were available, these parameters represent apparent values. Where available, metabolite data were included into the model and metabolism rate constant from drug compartment to metabolite compartment (k23) and metabolite clearance (CLmet) were also estimated. Owing to identifiability problems, the volume of distribution of the metabolites (VM) DLF and DHA were assumed to equal LF and AM VC, respectively. […] The observed baseline residual plasma concentrations were fitted by estimating a factor (F0) that provided an estimation of the residual doses from previous treatment.
Exponential errors following a log-normal distribution were assumed for the description of inter-patient variability of the pharmacokinetic parameters and were of the form: θi=θ×e^ηj where θi is the individual pharmacokinetic parameter value in the j^th individual, θ is the population parameter estimate, and ηj is the random effect value, which is independently and normally distributed with a mean of 0 and variance ω^2. Proportional and combined proportional-and-additive error models were compared to describe intra-patient (residual) variability for the mother compound, and if available for its metabolite using Cpij(1 + ϵ1ij) + ϵ2ij or Cmij(1 + ϵ3ij) + ϵ4ij, where Cpij are the corresponding predicted i^th drug plasma concentration and Cmij are the predicted metabolite concentration for the j^th individual, and ϵ1ij, ϵ2ij, ϵ3ij, ϵ4ij, are independent normally distributed residual error terms with a mean of zero and a variance of σ^2_1, σ^2_2, σ^2_3, σ^2_4.
The covariate analysis was performed using a stepwise insertion/deletion approach. […]

malaria [4] = system: malaria; parameters: method as in PMID 10579474; details: cited from earlier work
[5] = bootstrap evaluation, 200 replicates
[6] = patients, age 7.7 ± 1.4 years, n 13, sampling 28 days
[7] = patients, median age 4.0 (1–10) years, n 50, sampling 72 h
[8] = patients, median age 20 (5–66) years, n 309
[9] = patients, median age 22 (14–60) years, n 217
[10] = patients, median age 23 (13–59) years, n 102
[11] = pregnant women, median age 24 (15–42) years, n 103, sampling 336 h
[12] = patients, median age 9.3 (4–15) years, n 74, sampling 28 days
[13] = patients, median age 14.8 (8–61) years, n 128, sampling 28 days
[14] = patients, median age 19 (2–55) years, n 50, sampling 63 days
[15] = prophylaxis, mean age 26 (18–55) years, n 1,111, sampling 26 weeks

Structure (SMILES): CCCCN(CCCC)CC(O)c1cc(Cl)cc2c1-c1ccc(Cl)cc1/C2=C/c1ccc(Cl)cc1 (centres unmarked) [Lumefantrine, lumefantrine]
- patients with a concentration below the cut-off value of 175 ng/ml ([1]; Tanzanian sample of this study, day 7): 35%
- F0, bootstrap mean of 200 [1, 5]: 2.45 mg
- k23, bootstrap mean of 200 [1, 5]: 0.00037 h⁻¹
- ka, bootstrap mean of 200 [1, 5]: 0.48 h⁻¹
- θBWCL, bootstrap mean of 200 [1, 5]: 0.51
- θBWVC, bootstrap mean of 200 [1, 5]: 0.34
- σC (CV%), bootstrap mean of 200 [1, 5]: 61%
- IIV (inter-individual variability) of CL ([1]; final model): 38%
- IIV (inter-individual variability) of F0 ([1]; final model): 103%
- IIV (inter-individual variability) of VC ([1]; final model): 33%
- IIV (inter-individual variability) of k23 ([1]; final model): 38%
- ka (first-order absorption rate constant), population estimate ([1]; final model): 0.54 h⁻¹
- θBWVC, exponent of allometric power function of body weight on VC, population estimate ([1]; final model): 0.35
- F0 (residual amount from the previous treatment), population estimate ([1]; final model, baseline): 2.53 mg
- σC (CV%), residual error for the central compartment, population estimate ([1]; final model, intra-patient variability): 60%
- k23 (metabolism rate constant), population estimate ([1]; final model, parent to metabolite (AM to DHA, LF to DLF)): 0.00037 h⁻¹
- residual dose (F0) as percentage of the recommended first dose ([1]; first dose 120–480 mg): 0.3–1.3%
- clearance ([1]; human, plasma, oral, present study, Tanzanian patients, sampling 7 days): 128 mL/min
- Vd ([1]; human, plasma, oral, present study, Tanzanian patients, sampling 7 days, read-out: VSS (steady-state volume of distribution), population estimate for a person of 70 kg): 265 L
- CL, population estimate for a person of 70 kg [2, 6]: 7.29 L/h
- VSS, population estimate for a person of 70 kg [2, 6]: 506 L
- CL, population estimate for a person of 70 kg [2, 7]: 5.4 L/h
- VSS, population estimate for a person of 70 kg [2, 7]: 623 L
- CL, population estimate for a person of 70 kg [2, 8]: 7.6 L/h
- VSS, population estimate for a person of 70 kg [2, 8]: 361 L
- CL, population estimate for a person of 70 kg [2, 9]: 21 L/h
- VSS, population estimate for a person of 70 kg [2, 9]: 301 L
- CL, population estimate for a person of 70 kg [2, 10]: 7 L/h
- VSS, population estimate for a person of 70 kg [2, 10]: 298 L
- CL, population estimate for a person of 70 kg [2, 11]: 8.7 L/h
- VSS, population estimate for a person of 70 kg [2, 11]: 257 L
- efficacy rates at 42 days for a day 7 concentration cut-off of 50 ng/ml (malaria [3]; high transmission areas): 80% and 95%
- efficacy rates at 42 days for a day 7 concentration cut-off of 125 ng/ml (malaria [3]; low transmission areas): 84% and 96%

Structure (SMILES): OC(c1cc(C(F)(F)F)nc2c(C(F)(F)F)cccc12)C1CCCCN1 (centres unmarked) [Mefloquine, mefloquine]
- CL (clearance), population estimate (clinical): 0.10 × BW^0.75 L/h/kg
- CL, bootstrap mean of 200 (clinical): 0.10 × BW^0.75 L/h/kg
- F0 (residual amount from the previous treatment), population estimate (clinical): 33.1 mg
- F0, bootstrap mean of 200 (clinical): 31.0 mg
- IIV (inter-individual variability) of CL (clinical): 12%
- IIV (inter-individual variability) of F0 (clinical): 175%
- IIV (inter-individual variability) of VC (clinical): 19%
- VC (central volume of distribution), population estimate (clinical): 8.93 × BW L/kg
- VC, bootstrap mean of 200 (clinical): 9.01 × BW L/kg
- Vd (clinical): 625 L
- clearance (clinical): 40 mL/min
- inter-individual variability in concentration exposure (clinical): ~12%
- ka (first-order absorption rate constant), population estimate (clinical): 0.15 h⁻¹
- ka, bootstrap mean of 200 (clinical): 0.15 h⁻¹
- residual dose (F0) as percentage of an initial dose (clinical): 6.7–26.7%
- σC, bootstrap mean of 200 (clinical): 43%
- σC, residual error for the central compartment, population estimate (clinical): 43%
- CL, population estimate for a person of 70 kg [2, 12]: 3.71 L/h
- VSS, population estimate for a person of 70 kg [2, 12]: 1,089.2 L
- CL, population estimate for a person of 70 kg [2, 13]: 1.4 L/h
- VSS, population estimate for a person of 70 kg [2, 13]: 574.7 L
- CL, population estimate for a person of 70 kg [2, 14]: 2.1 L/h
- VSS, population estimate for a person of 70 kg [2, 14]: 767.62 L
- CL, population estimate for a person of 70 kg [2, 15]: 1.75 L/h
- VSS, population estimate for a person of 70 kg [2, 15]: 863 L
- minimal inhibitory concentration, MIC (drug plasma concentration) (malaria [4]): 0.5 µg/mL (≈ 1.32 µM)
